Measured values taken from patent US20080269339A1, “COMBINED USE OF EGF PATHWAY INHIBITORS AND DIFFERENTIATION PROMOTING COMPOUNDS” (priority 2007, published 2008).

Test system: Human keratinocytes
Assay: Cornified envelope formation (terminal differentiation) in confluent human keratinocyte culture
Type: cell-based
Conditions: for keratinocyte differentiation (percent of cornified envelopes): agent alone vs vehicle control, confluent keratinocytes, 5 days (FIG. 2, FIG. 3)
Method: In this study, Keratinocyte Cell Culture-Neonatal foreskin kerinocytes, purchased from Lonza (Walkersville, Md., USA), were grown in keratinocyte-SFM (Gilbro-BRL, Gaithersburg, Md., USA). This complete medium consists of keratinocyte basal medium and supplements (Gibco-BRL), human combinant EGF (5 ng/mL) and bovine pituitary extract (50 μg protein/mL). The calcium concentration in this medium is 0.09 mM.
Unless indicated in the description for a particular figure set forth below, confluent fifth passage keratinocytes were used, with treatments beginning 2 days after the last addition of complete medium. The media was changed and the cells were pretreated with PD153035 (300 nM) for two hours. Media was again changed to contain PD153035 (300 nM) and epidermal growth factor (10 ng/mL) and left for 24 hours. The media was changed a final time to basal media supplemented with 1 mM CaCl2 and 0.1% bovine serum albumin with the indicated chemical additions. The cells were incubated at 37° C., 5% CO2 for 5 days before the comified envelopes were scored. The vehicle, DMSO, was used as the control for both PD153035 and TCDD.
In reference to FIG. 2, Human keratinocytes were grown to confluence and treated with vehicle of media (control), sodium butyrate, epidermal growth factor (EGF) or a combination of EGF and NAB for 5 days. Cornified envelope formation is an endpoint of terminal differentiation. The percent of comified envelopes was calculated by dividing the number of cornified envelopes by the number of cells (times 100).
In FIG. 3, Human keratinocytes were grown to confluence and treated with vehicle of dimethylsulfoxide (DMSO), 2,3,7,8-tetrachlorodibenzo-p-dioxin (TCDD), epidermal growth factor (EFG) or a combination of EGF and TCDD for 5 days. Comified envelope formation is an endpoint of terminal cell differentiation. The percent of cornified envelopes was calculated by dividing the number of cornified envelopes by the number of cells (times 100).
In FIG. 4, Human keratinocytes were grown to confluence and treated with vehicle of DMSO (−/−), sodium butyrate (NaB) alone (−/+); epidermal growth factor (EGF) alone (+/−) or a combination of EGF and NaB (+/+) with or without PD153035 for 5 days. Comified envelope formation is an endpoint of terminal cell differentiation. The average percent (n=3, +/−std dev) of cornified envelopes was calculated by dividing the number of cornified envelopes by the number of cells (times 100).
In FIG. 5, Human keratinocytes were grown to confluence and treated with vehicle of DMSO (−/−), TCDD alone (−/+), epidermal growth factor (EGF) alone (+/−) or a combination of EGF and TCDD (+/+) with or without PD153035 for 5 days. Cornified envelope formation is an endpoint of terminal cell differentiation. The average percent (n=3, +/−std dev) of comified envelopes was calculated by dividing the number of cornified envelopes by the number of cells (times 100).

Clc1cc2c(cc1Cl)Oc1cc(Cl)c(Cl)cc1O2 [TCDD, 2,3,7,8-tetrachlorodibenzo-p-dioxin]
keratinocyte differentiation (percent of cornified envelopes): increases in keratinocyte differentiation

CCCC(=O)[O-].[Na+] [sodium butyrate]
keratinocyte differentiation (percent of cornified envelopes): increases in keratinocyte differentiation

COc1cc2ncnc(Nc3cccc(Br)c3)c2cc1OC [PD153035]
effect on sodium butyrate mediated differentiation (percent of cornified envelopes) (PD153035 300 nM, in the presence of EGF 10 ng/mL, 5 days, n=3 (FIG. 4)): increasing sodium butyrate mediated differentiation
effect on TCDD-mediated differentiation (percent of cornified envelopes) (PD153035 300 nM, in the presence of EGF 10 ng/mL, 5 days, n=3 (FIG. 5)): increasing TCDD-mediated differentiation

EGF: epidermal growth factor, a growth factor supporting the proliferation of epithelial cells
effect on TCDD increase in keratinocyte differentiation (percent of cornified envelopes) (combination of EGF and TCDD, 5 days (FIG. 3)): inhibited
effect on sodium butyrate increase in keratinocyte differentiation (percent of cornified envelopes) (combination of EGF and sodium butyrate, 5 days (FIG. 2)): inhibited
